Measured values: US9522935B2, “Commands and method of treating cancer via RHO pathway” (priority 2013, dated 2016)

Key:
HepG2 = test: In vitro effects on growth of liver cancer cells (Table 4); assay type: cell-based, human
[1] = system: allograft pancreatic cancer cell lines; test: Allograft pancreatic cancer cell lines in mouse model, tumor size; assay type: in vivo; details: 0.01 mg/kg intraperitoneal injection, three times a week
Description: LD030's effect on the growth of allograft pancreatic cancer cell lines was further studied as follows: Each mouse model was given 0.01 mg/kg LD030 via intraperitoneal injection, three times a week. […] Extracted from the treated mouse and the control mouse, the phosphorylation-signal transduction and activator of transcription (p-STAT3), phospho-JAK2 (p-JAK2), Bcl-XL, apoptosis protease 3, 9 and GADPH (glyceraldehyde-3-phosphate dehydrogenase, or […]) were subject to protein electrophoresis. […] GADPH was used as an internal reference, the expression of which was basically unchanged.

[2] = system: Jak/STAT phosphorylation in PancI cells; test: Western Blotting of signal pathway proteins in PancI cells; assay type: cell-based, human
HepG2 cells = test: Nude mouse model of hepatocellular carcinoma (HepG2), growth rate; assay type: in vivo, nude mice
Description: In contrast, LD30 (1 mg/kg/time, twice a day) reduced the growth rate of HepG2 cells by about 63%, with statistical significance (p<0.05) when compared with the ethanol control.
LD030 was also compared with Nexavar for their effects on the growth rate of HepG2 cells.
A further study was conducted on liver cancer cell line in nude mice (HepG2), where Nexavar's dosage was 30 mg/kg, twice a day and LD030's dosage was 1 mg/kg, twice a day along with a blank control and a combination of LD030 and Nexavar. The result is shown in FIG. 21 where Nr stands for Nexavar. […] When compared with the blank, LD030's effect is statistically significant (p<0.05).

[3] = system: SF-268 (brain tumor cell lines); test: MTT assay, LD030 on SF-268; assay type: cell-based; details: Homo sapiens; SF-268, 100 μM, 48 hours; read-out: inhibition rate on cell growth
Description: (§1) MTT assay, a well known method known in the art, was used to analyze anticancer effects of compound LD030 on human cancer cell lines, such as, HepG2 (liver cancer cell line), PancI (pancreatic cancer cell line), NCI-H460 (lung cancer cell line), MCF-7 (breast adenocarcinoma cell line) and SF-268 (brain tumor cell lines). An LD030 solution was diluted gradually to obtain a serial of LD030 solutions with decreasing concentrations, which was used to treat various cancer cell lines mentioned above incubated in separate container. […] For incubating with HepG2 cell line, LD030's concentrations were 0.001 μM, 0.01 μM, 0.1 μM, 1 μM, 10 μM, 100 μM. For PancI cell line, the concentrations were 0.1 μM, 1 μM, 10 μM, 100 μM. For NCI-H460 cell line, the concentrations were 0.001 μM, 0.01 μM, 0.1 μM, 1 μM, 10 μM, 100 μM. For MCF-7 cell line, the concentrations were 0.001 μM, 0.01 μM, 0.1 μM, 1 μM, 10 μM, 100 μM. For SF-268 cell line, the concentrations were 0.001 μM, 0.01 μM, 0.1 μM, 1 μM, 10 μM, 100 μM.

[4] = system: MCF-7 (breast adenocarcinoma cell line); test: MTT assay, LD030 on MCF-7; assay type: cell-based; details: Homo sapiens, MCF7; MCF-7, 100 μM, 48 hours; read-out: inhibition rate on cell growth
Description: as §1

[5] = system: NCI-H460 (lung cancer cell line); test: MTT assay, LD030 on NCI-H460; assay type: cell-based; details: Homo sapiens; NCI-H460, 100 μM, 48 hours; read-out: inhibition rate on cell growth
Description: as §1

[6] = system: HepG2 (liver cancer cell line); test: MTT assay, LD030 on HepG2; assay type: cell-based; details: Homo sapiens, 48 hours, read-out: inhibition rate on cell growth
Description: as §1

[7] = 50 μM, at 24 hours and 48 hours, versus blank control

Question: What does the source list for `CC(=O)OC(C)(C)C(=O)CCC(C)C1CC[C@@]2(C)C34CC[C@H]5C(C)(C)[C@@H](O)CC[C@]5(C)C3(CC[C@]12C)O4` (stereo partly shown) [LD030]?
Answer: IC50 (HepG2; Homo sapiens, HepG2, in vitro growth of HepG2 liver cancer cells): 1.33 µM; IC50 (HepG2; in vitro growth of HepG2 liver cancer cells): 1.57 µM; tumor size versus untreated control mouse [1]: significantly reduced; p-p38 protein expression ([2]; 20 μM, versus blank control): increased; p-jak2 [2, 7]: significantly reduced; p-stat3 (tyr705) [2, 7]: significantly reduced; expression of Cyclin B1 ([2]; 50 μM, at 48 hours): decreased; effect on the tumor cells (HepG2 cells; HepG2 in nude mice, LD030 1 mg/kg twice a day alone, FIG. 21): inhibitory effect; reduction of growth rate of HepG2 cells (HepG2 cells; nude mouse model, 1 mg/kg, twice a day, versus blank carrier control): about 63%; inhibition at 100 µM [3]: > 80%; inhibition at 100 µM [4]: > 80%; inhibition at 100 µM [5]: > 80%; inhibition at 100 µM [6]: > 80%
